The values below are quoted from earlier work in patent publication US20220133691A1, “LASOFOXIFENE TREATMENT OF VVA AND OSTEOPOROSIS IN SURVIVORS OF BREAST CANCER AND OTHER MALIGNANCIES” (Sermonix Pharmaceuticals, Inc., priority 2016, published 2022).

The subject of this data set is post-menopausal women with osteoporosis. The following applies: PEARL trial.

Turning to `Oc1ccc2c(c1)CC[C@H](c1ccccc1)[C@@H]2c1ccc(OCCN2CCCC2)cc1` [lasofoxifene], the risk of osteoporosis entry (Cummings et al., NEJM 2010) is listed as “reduce the risk of osteoporosis”. Under “post-menopausal women with osteoporosis, LaCroix et al., JNCI 2010”, the “risk of breast cancer” value was “reduced the risk of breast cancer”.
